Laboratory results taken from ChEMBL document CHEMBL4368904 (J Med Chem, 2019).
Values belong to the compound of their own block, whether it stands above or below them. Calls of active or inactive are those of the source. No cut-off for these calls is given here.

Legend:
[1] = target: T1, Adenosine receptor A3 (Homo sapiens) (UniProt P0DMS8); assay: Displacement of [125I]N6-(4-amino-3-iodobenzyl)adenosine-5-N-methyluronamide from human A3A adenosine receptor expressed in CHO cell membranes at 10 uM after 60 mins by scintillation proximity assay relative to adenosine 5-N-ethyluronamide
T1 sequence (whole entry): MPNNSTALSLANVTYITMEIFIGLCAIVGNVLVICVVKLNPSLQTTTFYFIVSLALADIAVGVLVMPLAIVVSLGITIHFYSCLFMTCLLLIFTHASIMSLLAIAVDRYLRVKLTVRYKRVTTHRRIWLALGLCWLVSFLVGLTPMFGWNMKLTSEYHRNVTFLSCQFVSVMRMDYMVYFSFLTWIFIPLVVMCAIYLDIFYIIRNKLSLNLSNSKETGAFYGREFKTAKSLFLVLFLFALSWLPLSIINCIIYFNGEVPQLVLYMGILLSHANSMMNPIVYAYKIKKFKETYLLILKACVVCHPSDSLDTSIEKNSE

[2] = Fraction unbound in rat plasma at 10 uM; type: ADME, cell-free
Adenosine receptor A2a [3] = target: T2, Adenosine receptor A2a (Homo sapiens, UniProt P29274); assay: Displacement of [3H]2-[p-(2-carboxyethyl)phenylethylamino]-5-N-ethylcarboxamidoadenosine from human A2A adenosine receptor expressed in HEK293 cell membranes at 10 uM after 60 mins by scintillation proximity assay relative to adenosine 5-N-ethyluronamide
Adenosine receptor A1 [4] = target: T3, Adenosine receptor A1 (Homo sapiens, UniProt P30542); assay: Agonist activity at human A1A adenosine receptor expressed in CHOKI cells assessed as induction of beta-arrestin2 recruitment after 60 mins; type: cell-based
T3 sequence (P30542 whole entry): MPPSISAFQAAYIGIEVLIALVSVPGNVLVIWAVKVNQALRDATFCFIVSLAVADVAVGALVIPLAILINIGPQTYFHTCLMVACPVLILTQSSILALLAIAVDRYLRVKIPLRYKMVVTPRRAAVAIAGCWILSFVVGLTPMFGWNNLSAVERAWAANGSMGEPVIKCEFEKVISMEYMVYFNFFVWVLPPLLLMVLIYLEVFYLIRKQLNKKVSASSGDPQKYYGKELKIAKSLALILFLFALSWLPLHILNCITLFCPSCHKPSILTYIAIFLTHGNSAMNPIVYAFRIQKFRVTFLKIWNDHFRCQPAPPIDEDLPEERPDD

Adenosine receptor A1 [5] = target: T3, Adenosine receptor A1; assay: Agonist activity at human A1A adenosine receptor expressed in HEK cells assessed as inhibition of forskolin-stimulated cAMP production after 60 mins; type: functional, cell-based
[6] = Fraction unbound in mouse plasma at 10 uM; type: ADME, cell-free
[7] = target: T4, Adenosine receptor A3 (Mus musculus) (UniProt Q61618); assay: Displacement of [125I]N6-(4-amino-3-iodobenzyl)adenosine-5-N-methyluronamide from mouse A3A adenosine receptor expressed in CHO cell membranes at 10 uM after 60 mins by scintillation proximity assay relative to adenosine 5-N-ethyluronamide
T4 sequence (whole entry): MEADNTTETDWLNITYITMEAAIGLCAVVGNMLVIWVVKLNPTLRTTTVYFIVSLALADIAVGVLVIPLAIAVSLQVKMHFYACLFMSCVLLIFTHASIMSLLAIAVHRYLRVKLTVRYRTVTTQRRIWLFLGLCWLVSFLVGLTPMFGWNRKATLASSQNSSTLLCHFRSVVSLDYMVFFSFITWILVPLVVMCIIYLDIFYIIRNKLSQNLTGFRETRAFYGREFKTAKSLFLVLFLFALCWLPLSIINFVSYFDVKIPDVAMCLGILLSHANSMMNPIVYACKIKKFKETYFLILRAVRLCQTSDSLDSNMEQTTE

[8] = Fraction unbound in human plasma at 10 uM; type: ADME, cell-free
[9] = target: T4, Adenosine receptor A3 (Mus musculus); assay: Agonist activity at mouse A3AR adenosine receptor at 10 uM after 60 mins by [35S]GTPgammaS binding assay relative to (2S,3S,4R,5R)-5-(6-amino-9H-purin-9-yl)-N-ethyl-3,4-dihydroxytetrahydrofuran-2-carboxamide; type: functional
Mus musculus [10] = assay: Induction of hypothermia in C57BL/6J mouse assessed as activity counts at 10 mg/kg, ip measured at 60 mins post dose (reference value: 15.5 +/- 5.5); type: functional
[11] = target: Sigma intracellular receptor 2 (Homo sapiens, UniProt Q5BJF2); assay: Inhibition of sigma receptor 2 (unknown origin)
Adenosine receptor A1 [12] = target: T3, Adenosine receptor A1; assay: Agonist activity at human A1A adenosine receptor expressed in HEK cell membranes incubated for 60 mins by [35S]GTPgammaS binding assay; type: functional
Mus musculus [13] = assay: Induction of hypothermia in C57BL/6J mouse assessed as body temperature at 10 mg/kg, ip measured at 60 mins post dose (reference value: 36.3 +/- 0.8 degC); type: functional
Mus musculus [14] = species: Mus musculus; assay: Selectivity index, ratio of Ki for mouse A3A adenosine receptor to Ki for mouse A1A adenosine receptor expressed in CHO cell membranes after 60 mins by scintillation proximity assay
Mus musculus [15] = assay: Induction of hypothermia in C57BL/6J mouse assessed as body temperature at […], icv measured after 10 hrs post dose; type: functional, organism-based
Mus musculus [16] = assay: Induction of hypothermia in C57BL/6J mouse assessed as body temperature at […], icv measured up to 120 mins post dose; type: functional, organism-based
Mus musculus [17] = assay: Induction of hypothermia in C57BL/6J mouse assessed as body temperature at 3 mg/kg, ip measured at 60 mins post dose (reference value: 36.3 +/- 0.8 degC); type: functional
[18] = Inhibition of rat benzodiazepine receptor
[19] = target: T5, Adenosine receptor A1 (Mus musculus) (UniProt Q60612); assay: Agonist activity at mouse A1A adenosine receptor at 10 uM after 60 mins by [35S]GTPgammaS binding assay relative to (2S,3S,4R,5R)-5-(6-amino-9H-purin-9-yl)-N-ethyl-3,4-dihydroxytetrahydrofuran-2-carboxamide; type: functional
T5 sequence (whole entry): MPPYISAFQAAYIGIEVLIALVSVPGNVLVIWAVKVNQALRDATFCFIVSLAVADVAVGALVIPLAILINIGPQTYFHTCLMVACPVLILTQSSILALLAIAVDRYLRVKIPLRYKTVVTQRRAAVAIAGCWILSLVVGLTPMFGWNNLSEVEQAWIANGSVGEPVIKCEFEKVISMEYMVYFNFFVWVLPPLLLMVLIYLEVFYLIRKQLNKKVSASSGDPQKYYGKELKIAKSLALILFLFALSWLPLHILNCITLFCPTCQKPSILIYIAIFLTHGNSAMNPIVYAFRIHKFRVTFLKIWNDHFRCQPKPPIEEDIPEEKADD

Mus musculus [20] = assay: Induction of hypothermia in C57BL/6J mouse assessed as activity counts at 3 mg/kg, ip measured at 60 mins post dose (reference value: 15.5 +/- 5.5); type: functional
Translocator protein = Translocator protein (Homo sapiens, UniProt P30536); assay: Inhibition of TSPO (unknown origin) at 10 uM relative to control
[21] = target: Adenosine receptor A2a (Mus musculus) (UniProt Q60613); assay: Displacement of [3H]2-[p-(2-carboxyethyl)phenylethylamino]-5-N-ethylcarboxamidoadenosine from mouse A2A adenosine receptor expressed in HEK293 cell membranes at 10 uM after 60 mins by scintillation proximity assay relative to adenosine 5-N-ethyluronamide
Mus musculus [22] = assay: Induction of hypothermia in A1AR knock out C57BL/6J mouse assessed as effect on body temperature at 3 mg/kg, ip measured at 60 mins post dose; type: functional, organism-based
Adenosine receptor A1 [23] = target: T6, Adenosine receptor A1 (Mus musculus, UniProt Q60612); assay: Displacement of [3H]N6-R-phenylisopropyladenosine from mouse A1A adenosine receptor expressed in CHO cell membranes after 60 mins by scintillation proximity assay
T6 sequence (Q60612 whole entry): T5 sequence (whole entry)

Adenosine receptor A2a [24] = target: T2, Adenosine receptor A2a; assay: Displacement of [3H]2-[p-(2-carboxyethyl)phenylethylamino]-5-N-ethylcarboxamidoadenosine from human A2A adenosine receptor expressed in HEK293 cell membranes after 60 mins by scintillation proximity assay
Adenosine receptor A3 [25] = target: T7, Adenosine receptor A3 (Homo sapiens, UniProt P0DMS8); assay: Displacement of [125I]N6-(4-amino-3-iodobenzyl)adenosine-5-N-methyluronamide from human A3A adenosine receptor expressed in CHO cell membranes after 60 mins by scintillation proximity assay
T7 sequence (P0DMS8 whole entry): T1 sequence (whole entry)

Mus musculus [26] = assay: Induction of hypothermia in A3AR knock out C57BL/6J mouse assessed as effect on body temperature at 3 mg/kg, ip measured at 60 mins post dose; type: functional, organism-based
[27] = target: Sodium-dependent noradrenaline transporter (Homo sapiens, UniProt P23975); assay: Inhibition of NET (unknown origin)
[28] = target: 5-hydroxytryptamine receptor 2B (Homo sapiens, UniProt P41595); assay: Inhibition of 5HT2B (unknown origin)
Adenosine receptor A3 [29] = target: T8, Adenosine receptor A3 (Mus musculus, UniProt Q61618); assay: Displacement of [125I]N6-(4-amino-3-iodobenzyl)adenosine-5-N-methyluronamide from mouse A3A adenosine receptor expressed in CHO cell membranes after 60 mins by scintillation proximity assay
T8 sequence (Q61618 whole entry): T4 sequence (whole entry)

Mus musculus [30] = assay: Induction of hypothermia in A1AR/A3AR knock out C57BL/6J mouse assessed as effect on body temperature at 3 mg/kg, ip measured at 60 mins post dose; type: functional, organism-based
Adenosine receptor A1 [31] = target: T3, Adenosine receptor A1; assay: Displacement of [3H]N6-R-phenylisopropyladenosine from human A1A adenosine receptor expressed in CHO cell membranes after 60 mins by scintillation proximity assay
Histamine H1 receptor = Histamine H1 receptor (Homo sapiens, UniProt P35367); assay: Inhibition of histamine H1 receptor (unknown origin)
[32] = target: Sigma non-opioid intracellular receptor 1 (Homo sapiens, UniProt Q99720); assay: Inhibition of sigma receptor 1 (unknown origin)
[33] = target: 5-hydroxytryptamine receptor 7 (Homo sapiens, UniProt P34969); assay: Inhibition of 5HT7R (unknown origin)
Histamine H2 receptor = Histamine H2 receptor (Homo sapiens, UniProt P25021); assay: Inhibition of histamine H2 receptor (unknown origin)
[34] = target: 5-hydroxytryptamine receptor 5A (Homo sapiens, UniProt P47898); assay: Inhibition of 5HT5A (unknown origin)
[35] = target: T9, Adenosine receptor A1 (Homo sapiens) (UniProt P30542); assay: Displacement of [3H]N6-R-phenylisopropyladenosine from human A1A adenosine receptor expressed in CHO cell membranes at 10 uM after 60 mins by scintillation proximity assay relative to adenosine 5-N-ethyluronamide
T9 sequence (whole entry): T3 sequence (P30542 whole entry)

Mus musculus [36] = assay: Induction of hypothermia in C57BL/6J mouse assessed as body temperature at 1 mg/kg, ip measured at 60 mins post dose (reference value: 36.3 +/- 0.8 degC); type: functional

T2 sequence (P29274 whole entry): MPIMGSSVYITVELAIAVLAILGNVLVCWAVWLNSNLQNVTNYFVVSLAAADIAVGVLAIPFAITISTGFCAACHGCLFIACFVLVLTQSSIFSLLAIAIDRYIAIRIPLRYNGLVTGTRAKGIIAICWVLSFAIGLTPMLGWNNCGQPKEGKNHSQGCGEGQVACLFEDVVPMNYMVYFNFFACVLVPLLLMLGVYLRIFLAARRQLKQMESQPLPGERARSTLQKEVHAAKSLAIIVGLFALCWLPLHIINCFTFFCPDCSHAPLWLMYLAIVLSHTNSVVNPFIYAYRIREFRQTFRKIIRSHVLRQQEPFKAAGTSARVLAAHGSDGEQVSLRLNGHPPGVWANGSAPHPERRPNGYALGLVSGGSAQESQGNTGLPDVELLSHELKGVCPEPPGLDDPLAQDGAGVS
Sequence of Sigma intracellular receptor 2 (Q5BJF2 whole entry): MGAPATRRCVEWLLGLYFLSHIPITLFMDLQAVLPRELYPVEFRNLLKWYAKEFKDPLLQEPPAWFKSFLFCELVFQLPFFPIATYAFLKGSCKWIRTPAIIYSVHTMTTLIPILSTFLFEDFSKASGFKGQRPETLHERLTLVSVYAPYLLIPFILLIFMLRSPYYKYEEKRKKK
Sequence of Sigma non-opioid intracellular receptor 1 (Q99720 whole entry): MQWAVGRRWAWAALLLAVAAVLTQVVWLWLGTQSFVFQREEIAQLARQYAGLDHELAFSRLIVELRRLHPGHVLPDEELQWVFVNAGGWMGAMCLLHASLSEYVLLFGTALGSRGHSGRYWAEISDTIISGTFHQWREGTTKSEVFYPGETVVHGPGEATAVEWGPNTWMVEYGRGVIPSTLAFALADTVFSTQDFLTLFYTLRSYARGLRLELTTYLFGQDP
Sequence of Sodium-dependent noradrenaline transporter (P23975 whole entry): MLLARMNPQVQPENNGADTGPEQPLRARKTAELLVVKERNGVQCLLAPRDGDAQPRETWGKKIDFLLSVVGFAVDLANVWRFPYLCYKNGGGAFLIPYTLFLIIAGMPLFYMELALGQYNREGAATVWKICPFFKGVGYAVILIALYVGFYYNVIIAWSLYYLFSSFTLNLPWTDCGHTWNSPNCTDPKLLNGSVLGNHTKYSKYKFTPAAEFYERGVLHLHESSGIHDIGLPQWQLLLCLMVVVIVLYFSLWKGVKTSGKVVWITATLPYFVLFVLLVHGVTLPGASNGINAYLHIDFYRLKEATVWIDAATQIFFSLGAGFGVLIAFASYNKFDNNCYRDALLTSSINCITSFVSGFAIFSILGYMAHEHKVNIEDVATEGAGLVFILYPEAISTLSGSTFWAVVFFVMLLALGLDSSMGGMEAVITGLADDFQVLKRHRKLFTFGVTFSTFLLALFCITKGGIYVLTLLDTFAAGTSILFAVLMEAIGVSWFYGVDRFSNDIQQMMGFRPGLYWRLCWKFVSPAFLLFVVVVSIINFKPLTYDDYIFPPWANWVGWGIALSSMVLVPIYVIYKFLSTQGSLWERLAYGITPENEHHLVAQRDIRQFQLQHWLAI
Sequence of 5-hydroxytryptamine receptor 7 (P34969 whole entry): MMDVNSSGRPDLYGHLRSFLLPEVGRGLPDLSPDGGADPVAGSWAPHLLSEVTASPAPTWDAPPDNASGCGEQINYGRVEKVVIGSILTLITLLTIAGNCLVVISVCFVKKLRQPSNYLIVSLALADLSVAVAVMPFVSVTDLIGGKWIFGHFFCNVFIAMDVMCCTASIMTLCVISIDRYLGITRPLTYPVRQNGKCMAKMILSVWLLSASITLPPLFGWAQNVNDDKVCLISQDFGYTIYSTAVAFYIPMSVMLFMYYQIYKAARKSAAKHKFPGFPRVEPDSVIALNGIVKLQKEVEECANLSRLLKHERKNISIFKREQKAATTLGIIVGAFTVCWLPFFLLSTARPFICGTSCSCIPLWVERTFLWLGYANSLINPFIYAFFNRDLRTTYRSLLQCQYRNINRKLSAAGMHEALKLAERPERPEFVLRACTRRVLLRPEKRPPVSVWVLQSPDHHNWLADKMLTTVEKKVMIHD
Sequence of Translocator protein (P30536 whole entry): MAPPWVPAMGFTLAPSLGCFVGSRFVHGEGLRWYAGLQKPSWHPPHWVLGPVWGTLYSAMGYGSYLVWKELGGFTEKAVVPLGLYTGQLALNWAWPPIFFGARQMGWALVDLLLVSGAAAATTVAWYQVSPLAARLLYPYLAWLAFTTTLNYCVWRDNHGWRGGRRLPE
Sequence of Histamine H1 receptor (P35367 whole entry): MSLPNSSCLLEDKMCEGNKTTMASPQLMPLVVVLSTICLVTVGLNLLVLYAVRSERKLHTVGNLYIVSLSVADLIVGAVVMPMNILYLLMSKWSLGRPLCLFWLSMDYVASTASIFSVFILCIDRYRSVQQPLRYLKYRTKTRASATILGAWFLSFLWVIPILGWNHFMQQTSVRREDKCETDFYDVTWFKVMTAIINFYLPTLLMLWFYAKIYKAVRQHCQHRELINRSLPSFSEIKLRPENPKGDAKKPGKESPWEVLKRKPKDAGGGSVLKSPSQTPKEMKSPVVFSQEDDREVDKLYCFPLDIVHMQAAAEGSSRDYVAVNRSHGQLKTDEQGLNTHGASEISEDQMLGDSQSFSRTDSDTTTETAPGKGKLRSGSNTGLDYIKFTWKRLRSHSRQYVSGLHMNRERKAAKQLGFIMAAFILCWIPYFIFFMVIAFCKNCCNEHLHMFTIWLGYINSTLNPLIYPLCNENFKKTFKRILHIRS
Sequence of 5-hydroxytryptamine receptor 5A (P47898 whole entry): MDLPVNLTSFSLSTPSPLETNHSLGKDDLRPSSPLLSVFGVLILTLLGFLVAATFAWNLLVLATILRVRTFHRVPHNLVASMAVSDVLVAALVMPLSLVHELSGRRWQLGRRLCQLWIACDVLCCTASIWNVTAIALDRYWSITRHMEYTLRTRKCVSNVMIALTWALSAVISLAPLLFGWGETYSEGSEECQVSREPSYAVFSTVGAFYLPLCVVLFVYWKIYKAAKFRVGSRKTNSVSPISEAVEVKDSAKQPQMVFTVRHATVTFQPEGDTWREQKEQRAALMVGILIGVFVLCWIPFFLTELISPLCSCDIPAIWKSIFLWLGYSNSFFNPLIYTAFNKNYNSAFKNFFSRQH
Sequence of Histamine H2 receptor (P25021 whole entry): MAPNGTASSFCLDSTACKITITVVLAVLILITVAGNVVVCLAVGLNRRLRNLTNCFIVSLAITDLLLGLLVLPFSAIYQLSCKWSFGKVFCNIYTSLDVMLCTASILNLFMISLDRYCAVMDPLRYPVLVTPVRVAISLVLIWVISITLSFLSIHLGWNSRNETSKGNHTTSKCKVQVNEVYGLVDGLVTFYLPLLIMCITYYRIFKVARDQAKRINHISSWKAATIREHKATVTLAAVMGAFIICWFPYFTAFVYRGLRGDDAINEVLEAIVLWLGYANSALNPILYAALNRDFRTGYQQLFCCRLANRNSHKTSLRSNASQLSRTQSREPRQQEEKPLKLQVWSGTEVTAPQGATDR
Sequence of Adenosine receptor A2a (Mus musculus) (Q60613 whole entry): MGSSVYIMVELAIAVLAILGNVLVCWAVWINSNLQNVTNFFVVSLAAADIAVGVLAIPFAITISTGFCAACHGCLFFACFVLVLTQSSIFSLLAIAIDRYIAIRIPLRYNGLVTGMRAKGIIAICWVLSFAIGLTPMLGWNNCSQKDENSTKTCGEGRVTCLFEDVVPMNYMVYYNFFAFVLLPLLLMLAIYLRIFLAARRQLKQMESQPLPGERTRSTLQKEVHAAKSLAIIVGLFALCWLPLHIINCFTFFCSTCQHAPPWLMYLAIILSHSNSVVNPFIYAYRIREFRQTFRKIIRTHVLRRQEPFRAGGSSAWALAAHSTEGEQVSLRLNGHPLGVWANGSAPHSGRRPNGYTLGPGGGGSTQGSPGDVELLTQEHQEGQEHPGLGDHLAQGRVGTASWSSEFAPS
Sequence of 5-hydroxytryptamine receptor 2B (P41595 whole entry): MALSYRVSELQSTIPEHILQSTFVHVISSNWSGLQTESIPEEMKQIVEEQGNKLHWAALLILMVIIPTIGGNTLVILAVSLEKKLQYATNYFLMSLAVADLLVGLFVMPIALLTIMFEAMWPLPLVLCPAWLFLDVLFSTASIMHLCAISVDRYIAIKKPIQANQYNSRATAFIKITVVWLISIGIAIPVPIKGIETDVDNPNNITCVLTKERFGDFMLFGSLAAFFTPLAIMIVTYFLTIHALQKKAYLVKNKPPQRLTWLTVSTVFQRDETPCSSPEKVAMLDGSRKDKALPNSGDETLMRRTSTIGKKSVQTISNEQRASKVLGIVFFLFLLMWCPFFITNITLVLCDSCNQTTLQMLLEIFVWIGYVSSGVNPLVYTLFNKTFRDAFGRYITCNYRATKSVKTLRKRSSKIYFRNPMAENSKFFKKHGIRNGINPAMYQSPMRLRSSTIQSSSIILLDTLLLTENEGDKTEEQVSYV

Structure (SMILES): NC(=O)c1ncn([C@H]2[C@H](O)[C@H](O)[C@]3(CO)C[C@H]23)n1
inhibition [1]: 41% | Fu [2]: > 80% | inhibition (Adenosine receptor A2a [3]): 11% | EC50 (Adenosine receptor A1 [4]): 2460 nM | IC50 (Adenosine receptor A1 [5]): 87 nM | Fu [6]: > 80% | inhibition [7]: 47% | Fu [8]: > 80% | Emax [9]: 31% | Activity (Mus musculus [10]): 19.1 | Ki [11]: 2090 nM | EC50 (Adenosine receptor A1 [12]): 758 nM | T (Mus musculus [13]): 35.7 °C | Ratio Ki (Mus musculus [14]): 400

inhibition [1]: 51% | Fu [2]: 17.8% | inhibition (Adenosine receptor A2a [3]): 34% | Fu [6]: 27.5% | Ki [18]: 4080 nM | Fu [8]: 14.6% | Emax [9]: 92% | Ki [11]: 753 nM | Emax [19]: 97%
Structure (SMILES): OC[C@@]12C[C@@H]1[C@@H](n1cnc3c(NC(C4CCC4)C4CCC4)ncnc31)[C@H](O)[C@@H]2O
Activity (Mus musculus [15]): Active | Activity (Mus musculus [16]): Active | T (Mus musculus [17]): 36.2 °C | Ratio Ki (Mus musculus [14]): 1730 | Activity (Mus musculus [20]): 18.1

Structure (SMILES): CCSC[C@H]1O[C@@H](n2cnc3c(NC(C4CCC4)C4CCC4)ncnc32)[C@H](O)[C@@H]1O
inhibition (Adenosine receptor A2a [3]): 30% | inhibition (Translocator protein): 90% | Ki [11]: 642 nM

Structure (SMILES): OC[C@@]12C[C@@H]1[C@@H](n1cnc3c(N[C@H]4C[C@H]5CC[C@@H]4C5)nc(Cl)nc31)[C@H](O)[C@@H]2O
inhibition [21]: 15% | Fu [2]: 6.59% | T (Mus musculus [17]): 33.4 °C | Fu [6]: 7.68% | Activity (Mus musculus [22]): inactive | Ki (Adenosine receptor A1 [23]): 1.05 nM | Fu [8]: 9.75% | Emax [9]: 62% | Ki (Adenosine receptor A2a [24]): 4260 nM | Emax [19]: 104% | Ki (Adenosine receptor A3 [25]): 288 nM | Activity (Mus musculus [26]): inactive | Ki [27]: 5740 nM | Ratio Ki (Mus musculus [14]): 547 | Ki [28]: 472 nM | Ki (Adenosine receptor A3 [29]): 574 nM | Activity (Mus musculus [30]): inactive | Ki (Adenosine receptor A1 [31]): 23.6 nM | Activity (Mus musculus [20]): 10

Structure (SMILES): Nc1ncnc2c1ncn2[C@@H]1O[C@H](C(=O)NC2CC2)[C@@H](O)[C@H]1O
Ki [11]: 4350 nM | Ki (Histamine H1 receptor): 7880 nM

Structure (SMILES): O[C@@H]1[C@H](O)[C@@H](CCl)O[C@H]1n1cnc2c(N[C@H]3C[C@H]4CC[C@@H]3C4)ncnc21
Ki [11]: 432 nM | Ki (Adenosine receptor A2a [24]): 2050 nM | Ki (Adenosine receptor A3 [25]): 355 nM | Ki [32]: 484 nM | Ki [33]: 1240 nM | Ki (Adenosine receptor A3 [29]): 1560 nM

inhibition [1]: 41% | inhibition (Adenosine receptor A2a [3]): 15% | Ki (Histamine H2 receptor): 6380 nM | Ki [34]: 8690 nM | inhibition [35]: 49%
Structure (SMILES): CCOC(=O)[C@@]12C[C@@H]1[C@@H](n1cnc3c(NC(C4CC4)C4CC4)nc(Cl)nc31)[C@@H]1OC(C)(C)O[C@@H]12

Structure (SMILES): OC[C@H]1O[C@@H](n2cnc3c(NC4CCCC4)ncnc32)[C@H](O)[C@@H]1O [N6-CYCLOPENTYLADENOSINE]
T (Mus musculus [36]): 32.4 °C
